Measurements as given in PMC6367340, “Novel insights into P450 BM3 interactions with FDA-approved antifungal azole drugs” (Scientific Reports, 2019).
“Also recorded” adds a separate entry of the source. Where two headings read alike, the source gives them in different places.

What was measured:
P450 BM3 (CYP102A1) = tested on: P450 BM3 (CYP102A1); set-up: method as in PMID 10191269; conditions: arachidonic acid as the substrate; cited from earlier work
[1] = target: T1, BM3 A82F/F87V double mutant (DM) heme domain (Priestia megaterium, UniProt P14779, A83F/F88V); assay: biochemical; assay type: binding, Bacillus megaterium; conditions: for Delta Abs Peak (wavelength maximum of absorbance difference spectrum) / Delta Abs Trough (wavelength minimum of absorbance difference spectrum) / Delta Abs/Soret Peak / Soret Shift (final Soret wavelength at apparent saturation): DM BM3 heme domain; for Delta Abs/Soret Peak: maximal peak-minus-trough value divided by P450 Soret peak value; for Soret Shift (final Soret wavelength at apparent saturation): starting wavelength 418 nm
T1 construct: The BM3 heme domain proteins (WT and the DM A82F/F87V variant) used in this study were expressed as described in our previous studies; made in house; host or cells: E. coli BL21 (DE3)
Description: (§1) This leads to dioxygen (O2) binding to heme iron and to the progression of the P450 catalytic cycle that leads to monooxygenation of the substrate. […] P450 UV-visible binding assays and other spectroscopic studies using azoles are often hindered by the low solubility of many of these drugs. […] The azoles used range widely in size and structure, and contain either an imidazole or a triazole functional group (or two triazole groups in the case of fluconazole). […] Spectral binding data were fitted using hyperbolic (Michaelis-Menten)[30] or tight-binding (Morrison)[31] equations, or by using the Hill function[32] in cases where there was a clear sigmoidal dependence of heme absorbance change on azole drug concentration.
(§2) Experiments were performed using a Cary 50 UV-Visible spectrophotometer (Agilent Technologies Ltd). WT and DM heme domains at concentrations of ~2–4 μM were used, and binding titrations were done by the addition of small (typically 0.2–0.4 μL) volumes of azole ligand stocks (1, 10 or 30 mM, to minimize amounts of solvent carrier used) to a 1 mL heme domain sample in a quartz cuvette. An extinction coefficient of 95 mM^−1 cm^−1 was used for the low-spin forms of the WT and DM heme domains. […] Azole drugs were obtained from Merck Chemicals (Nottingham, UK). All azole compounds used in these and other experiments done in this manuscript were sourced from Sigma Aldrich (Cambridge, UK).
(§3) Data were processed by the subtraction of the spectrum of each successive ligand-bound form (from a specific titration set) from the spectrum of the ligand-free enzyme. This produced a set of difference spectra (for each particular azole titration), from which wavelengths associated with the absorbance minimum (Amin) and maximum (Amax) were readily identified. For each titration point, an absorbance difference value was calculated as Amax minus Amin, using the same wavelength pair throughout an individual experiment. These values were then plotted against the relevant azole ligand concentrations used. […] Assays were done using 25 mM KPi (pH 7) at a constant temperature of 30 °C.

WT BM3 heme domain = target: T2, WT BM3 heme domain (Priestia megaterium, UniProt P14779); assay: biochemical; assay type: binding, Bacillus megaterium; conditions: for Delta Abs/Soret Peak: maximal peak-minus-trough value divided by P450 Soret peak value; for Soret Shift (final Soret wavelength at apparent saturation): starting wavelength 418 nm
T2 construct: The BM3 heme domain proteins (WT and the DM A82F/F87V variant) used in this study were expressed as described in our previous studies; made in house; host or cells: E. coli BL21 (DE3)
Description: as §1, §2, §3

[2] = DM (A82F/F87V) BM3 heme domain, 25 mM KPi pH 7, 30 °C

T1 sequence (P14779 2-472 A83F/F88V): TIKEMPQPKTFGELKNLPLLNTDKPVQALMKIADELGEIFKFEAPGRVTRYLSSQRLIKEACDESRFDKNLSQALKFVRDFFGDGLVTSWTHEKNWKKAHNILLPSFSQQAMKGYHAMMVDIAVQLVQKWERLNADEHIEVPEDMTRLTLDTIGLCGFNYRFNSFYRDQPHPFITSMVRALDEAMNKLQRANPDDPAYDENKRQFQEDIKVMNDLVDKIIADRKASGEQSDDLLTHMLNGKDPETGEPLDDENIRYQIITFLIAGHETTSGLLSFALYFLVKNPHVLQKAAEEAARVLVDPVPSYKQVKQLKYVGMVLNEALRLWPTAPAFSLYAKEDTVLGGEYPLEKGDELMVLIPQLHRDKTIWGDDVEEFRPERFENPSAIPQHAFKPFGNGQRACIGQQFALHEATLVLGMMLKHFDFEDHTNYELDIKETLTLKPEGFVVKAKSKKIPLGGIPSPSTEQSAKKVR
T2 sequence (P14779 2-472): as the sequence (P14779 2-472 A83F/F88V) above, with F82A, V87F counted along it

SMILES: CCCCC/C=C\C/C=C\C/C=C\C/C=C\CCCC(=O)O [arachidonic acid]
- catalytic rate for substrate oxidation (P450 BM3 (CYP102A1)): ~ 285 s^−1

SMILES: C[C@@H](c1nc(-c2ccc(C#N)cc2)cs1)[C@](O)(Cn1cncn1)c1ccc(F)cc1F [Ravuconazole]
- Delta Abs Peak (wavelength maximum of absorbance difference spectrum) [1]: 434 nm
- Delta Abs Trough (wavelength minimum of absorbance difference spectrum) [1]: 413 nm
- Delta Abs/Soret Peak [1]: 0.21
- Soret Shift (final Soret wavelength at apparent saturation) [1]: 422 nm
- Kd [1, 2]: 340 ± 20 nM
- Soret spectral shift / heme absorbance change on titration (in words) (WT BM3 heme domain; WT BM3 heme domain): failed to induce a Soret spectral shift of sufficient extent to allow Kd determination; also recorded: no significant spectral shifts

SMILES: Clc1ccc(CCC(Cn2ccnc2)Sc2c(Cl)cccc2Cl)cc1 (stereo not drawn) [Butoconazole nitrate]
- Delta Abs Peak (wavelength maximum of absorbance difference spectrum) [1]: 433 nm
- Delta Abs Trough (wavelength minimum of absorbance difference spectrum) [1]: 413 nm
- Delta Abs/Soret Peak [1]: 0.47
- Soret Shift (final Soret wavelength at apparent saturation) [1]: 424 nm
- Kd [1, 2]: 470 ± 20 nM
- Kd (WT BM3 heme domain): 3800 ± 120 nM
- Delta Abs Peak (wavelength maximum of absorbance difference spectrum) (WT BM3 heme domain; WT BM3 heme domain): 434 nm
- Delta Abs Trough (wavelength minimum of absorbance difference spectrum) (WT BM3 heme domain; WT BM3 heme domain): 413 nm
- Delta Abs/Soret Peak (WT BM3 heme domain; WT BM3 heme domain): 0.35
- Soret Shift (final Soret wavelength at apparent saturation) (WT BM3 heme domain; WT BM3 heme domain): 422 nm

SMILES: Clc1ccc(C(Cn2ccnc2)OCc2csc3c(Cl)cccc23)c(Cl)c1 (stereo not drawn) [Sertaconazole nitrate]
- Delta Abs Peak (wavelength maximum of absorbance difference spectrum) [1]: 433 nm
- Delta Abs Trough (wavelength minimum of absorbance difference spectrum) [1]: 413 nm
- Delta Abs/Soret Peak [1]: 0.45
- Soret Shift (final Soret wavelength at apparent saturation) [1]: 423 nm
- Kd [1, 2]: 460 ± 10 nM
- Kd (WT BM3 heme domain): 2440 ± 140 nM
- Delta Abs Peak (wavelength maximum of absorbance difference spectrum) (WT BM3 heme domain; WT BM3 heme domain): 439 nm
- Delta Abs Trough (wavelength minimum of absorbance difference spectrum) (WT BM3 heme domain; WT BM3 heme domain): 416 nm
- Delta Abs/Soret Peak (WT BM3 heme domain; WT BM3 heme domain): 0.08
- Soret Shift (final Soret wavelength at apparent saturation) (WT BM3 heme domain; WT BM3 heme domain): 419 nm

SMILES: Clc1ccc(C(Cn2ccnc2)OCc2ccsc2Cl)c(Cl)c1 (stereo not drawn) [Tioconazole]
- Delta Abs Peak (wavelength maximum of absorbance difference spectrum) [1]: 434 nm
- Delta Abs Trough (wavelength minimum of absorbance difference spectrum) [1]: 414 nm
- Delta Abs/Soret Peak [1]: 0.44
- Soret Shift (final Soret wavelength at apparent saturation) [1]: 423 nm
- Tighter binding to DM heme domain than to WT heme domain ([1]; DM versus WT heme domain): ~ 50 fold
- Kd [1, 2]: 390 ± 30 nM
- Kd (WT BM3 heme domain; Kd, WT BM3 heme domain, 25 mM KPi pH 7, 30 °C, NB = no binding seen in UV-visible spectroscopic titrations): 24500 ± 1100 nM
- Delta Abs Peak (wavelength maximum of absorbance difference spectrum) (WT BM3 heme domain; WT BM3 heme domain): 434 nm
- Delta Abs Trough (wavelength minimum of absorbance difference spectrum) (WT BM3 heme domain; WT BM3 heme domain): 414 nm
- Delta Abs/Soret Peak (WT BM3 heme domain; WT BM3 heme domain): 0.29
- Soret Shift (final Soret wavelength at apparent saturation) (WT BM3 heme domain; WT BM3 heme domain): 422 nm

SMILES: CC(C)(C)C(=O)C(Oc1ccc(Cl)cc1)n1ccnc1 (stereo not drawn) [Climbazole]
- Delta Abs Peak (wavelength maximum of absorbance difference spectrum) [1]: 430 nm
- Delta Abs Trough (wavelength minimum of absorbance difference spectrum) [1]: 408 nm
- Delta Abs/Soret Peak [1]: 0.50
- Soret Shift (final Soret wavelength at apparent saturation) [1]: 424 nm
- Kd [1, 2]: 320 ± 10 nM
- Kd (WT BM3 heme domain): 1520 ± 20 nM
- Delta Abs Peak (wavelength maximum of absorbance difference spectrum) (WT BM3 heme domain; WT BM3 heme domain): 433 nm
- Delta Abs Trough (wavelength minimum of absorbance difference spectrum) (WT BM3 heme domain; WT BM3 heme domain): 413 nm
- Delta Abs/Soret Peak (WT BM3 heme domain; WT BM3 heme domain): 0.43
- Soret Shift (final Soret wavelength at apparent saturation) (WT BM3 heme domain; WT BM3 heme domain): 424 nm

SMILES: C[C@@H](c1ncncc1F)[C@](O)(Cn1cncn1)c1ccc(F)cc1F [Voriconazole]
- Delta Abs Peak (wavelength maximum of absorbance difference spectrum) [1]: 435 nm
- Delta Abs Trough (wavelength minimum of absorbance difference spectrum) [1]: 414 nm
- Delta Abs/Soret Peak [1]: 0.21
- Soret Shift (final Soret wavelength at apparent saturation) [1]: 420 nm
- Kd [1, 2]: 1900 ± 130 nM
- Soret spectral shift / heme absorbance change on titration (in words) (WT BM3 heme domain; WT BM3 heme domain): failed to induce a Soret spectral shift of sufficient extent to allow Kd determination

SMILES: c1ccc(-c2ccc(C(c3ccccc3)n3ccnc3)cc2)cc1 (stereo not drawn) [Bifonazole]
- Delta Abs Peak (wavelength maximum of absorbance difference spectrum) [1]: 436 nm
- Delta Abs Trough (wavelength minimum of absorbance difference spectrum) [1]: 413 nm
- Delta Abs/Soret Peak [1]: 0.42
- Soret Shift (final Soret wavelength at apparent saturation) [1]: 425 nm
- Kd [1, 2]: 130 ± 50 nM
- Kd ([1]; DM enzyme, Figure S1 legend, tight-binding (Morrison) fit): 130 ± 20 nM
- Kd (WT BM3 heme domain): 3540 ± 50 nM
- Delta Abs Peak (wavelength maximum of absorbance difference spectrum) (WT BM3 heme domain; WT BM3 heme domain): 434 nm
- Delta Abs Trough (wavelength minimum of absorbance difference spectrum) (WT BM3 heme domain; WT BM3 heme domain): 413 nm
- Delta Abs/Soret Peak (WT BM3 heme domain; WT BM3 heme domain): 0.43
- Soret Shift (final Soret wavelength at apparent saturation) (WT BM3 heme domain; WT BM3 heme domain): 423 nm

SMILES: CC[C@@H]([C@H](C)O)n1ncn(-c2ccc(N3CCN(c4ccc(OC[C@@H]5CO[C@@](Cn6cncn6)(c6ccc(F)cc6F)C5)cc4)CC3)cc2)c1=O [Posaconazole]
- Delta Abs Peak (wavelength maximum of absorbance difference spectrum) [1]: 430 nm
- Delta Abs Trough (wavelength minimum of absorbance difference spectrum) [1]: 395 nm
- Delta Abs/Soret Peak [1]: 0.41
- Soret Shift (final Soret wavelength at apparent saturation) [1]: 422 nm
- Kd [1, 2]: 2690 ± 50 nM
- Soret spectral shift / heme absorbance change on titration (in words) (WT BM3 heme domain; WT BM3 heme domain): failed to induce a Soret spectral shift of sufficient extent to allow Kd determination; also recorded: no significant spectral shifts

SMILES: Clc1ccc(C(Cn2ccnc2)OCc2c(Cl)cccc2Cl)c(Cl)c1 (stereo not drawn) [Isoconazole nitrate]
- Delta Abs Peak (wavelength maximum of absorbance difference spectrum) [1]: 435 nm
- Delta Abs Trough (wavelength minimum of absorbance difference spectrum) [1]: 415 nm
- Kd [1, 2]: 440 ± 20 nM
- Kd (WT BM3 heme domain): 12000 ± 500 nM
- Delta Abs Peak (wavelength maximum of absorbance difference spectrum) (WT BM3 heme domain; WT BM3 heme domain): 436 nm
- Delta Abs Trough (wavelength minimum of absorbance difference spectrum) (WT BM3 heme domain; WT BM3 heme domain): 415 nm

SMILES: Clc1ccc(C(Cn2ccnc2)OCc2ccc(Sc3ccccc3)cc2)c(Cl)c1 (stereo not drawn) [Fenticonazole nitrate]
- Delta Abs Peak (wavelength maximum of absorbance difference spectrum) [1]: 434 nm
- Delta Abs Trough (wavelength minimum of absorbance difference spectrum) [1]: 414 nm
- Delta Abs/Soret Peak [1]: 0.44
- Soret Shift (final Soret wavelength at apparent saturation) [1]: 424 nm
- Kd [1, 2]: 520 ± 30 nM
- Kd (WT BM3 heme domain): 1890 ± 50 nM
- Delta Abs Peak (wavelength maximum of absorbance difference spectrum) (WT BM3 heme domain; WT BM3 heme domain): 434 nm
- Delta Abs Trough (wavelength minimum of absorbance difference spectrum) (WT BM3 heme domain; WT BM3 heme domain): 415 nm
- Delta Abs/Soret Peak (WT BM3 heme domain; WT BM3 heme domain): 0.21
- Soret Shift (final Soret wavelength at apparent saturation) (WT BM3 heme domain; WT BM3 heme domain): 419 nm

SMILES: OC(Cn1cncn1)(Cn1cncn1)c1ccc(F)cc1F [Fluconazole]
- Delta Abs Peak (wavelength maximum of absorbance difference spectrum) [1]: 434 nm
- Delta Abs Trough (wavelength minimum of absorbance difference spectrum) [1]: 414 nm
- Delta Abs/Soret Peak [1]: 0.19
- Soret Shift (final Soret wavelength at apparent saturation) [1]: 421 nm
- Kd [1, 2]: 2910 ± 200 nM
- Soret spectral shift / heme absorbance change on titration (in words) (WT BM3 heme domain; WT BM3 heme domain): failed to induce a Soret spectral shift of sufficient extent to allow Kd determination

SMILES: CCC(C)n1ncn(-c2ccc(N3CCN(c4ccc(OCC5COC(Cn6cncn6)(c6ccc(Cl)cc6Cl)O5)cc4)CC3)cc2)c1=O (stereo not drawn) [Itraconazole]
- Delta Abs Peak (wavelength maximum of absorbance difference spectrum) [1]: 438 nm
- Delta Abs Trough (wavelength minimum of absorbance difference spectrum) [1]: 414 nm
- Delta Abs/Soret Peak [1]: 0.16
- Soret Shift (final Soret wavelength at apparent saturation) [1]: 421 nm
- Kd [1, 2]: 50 ± 10 nM
- Soret spectral shift / heme absorbance change on titration (in words) (WT BM3 heme domain; WT BM3 heme domain): failed to induce a Soret spectral shift of sufficient extent to allow Kd determination; also recorded: no significant spectral shifts
